Legend:
[1] = system: total HDAC enzyme (HeLa extract); assay: In vitro inhibition of total HDAC enzyme activity (HDAC Fluorimetric Assay/Drug Discovery Kit, BIOMOL); type: biochemical, human
Procedure: Measurement of in vitro inhibition of total HDAC enzyme activity:
The in vitro inhibition of total HDAC enzyme was determined by HDAC Fluorimetric Assay/Drug Discovery Kit (BIOMOL) according to manufacture's instruction. • 1. Add Assay buffer, diluted trichostatin A or test inhibitor to appropriate wells of the microtiter plate. Following table lists examples of various assay types and the additions required for each test.
• 2. Add diluted HeLa extract or other HDAC sample to all wells except those that are to be “No Enzyme Controls” (Blank). • 3. Allow diluted Fluor de LyS™ Substrate and the samples in the microtiter plate to equilibrate to assay temperature (25° C.). • 4. Initiate HDAC reactions by adding diluted substrate (25 μl) to each well and mixing thoroughly. • 5. Allow HDAC reactions to proceed for desired length of time and then stop them by addition of Fluor de Lys™ Developer (50 μl). Incubate plate at room temperature (25° C.) for 10-15 min. • 6. Read samples in a microtiter-plate reading fluorimeter capable of excitation at a wavelength in the range 350-380 nm and detection of emitted light in the range 440-460 nm.

[2] = target: T1, HDAC6 (α-tubulin acetylation) (Homo sapiens, UniProt Q9UBN7); assay: ELISA assay of acetylation of α-tubulin in HeLa cells; type: cell-based; conditions: M-HeLa, 24 hours
T1 construct: endogenous in cells; host or cells: HeLa
T1 sequence (Q9UBN7 1-1215): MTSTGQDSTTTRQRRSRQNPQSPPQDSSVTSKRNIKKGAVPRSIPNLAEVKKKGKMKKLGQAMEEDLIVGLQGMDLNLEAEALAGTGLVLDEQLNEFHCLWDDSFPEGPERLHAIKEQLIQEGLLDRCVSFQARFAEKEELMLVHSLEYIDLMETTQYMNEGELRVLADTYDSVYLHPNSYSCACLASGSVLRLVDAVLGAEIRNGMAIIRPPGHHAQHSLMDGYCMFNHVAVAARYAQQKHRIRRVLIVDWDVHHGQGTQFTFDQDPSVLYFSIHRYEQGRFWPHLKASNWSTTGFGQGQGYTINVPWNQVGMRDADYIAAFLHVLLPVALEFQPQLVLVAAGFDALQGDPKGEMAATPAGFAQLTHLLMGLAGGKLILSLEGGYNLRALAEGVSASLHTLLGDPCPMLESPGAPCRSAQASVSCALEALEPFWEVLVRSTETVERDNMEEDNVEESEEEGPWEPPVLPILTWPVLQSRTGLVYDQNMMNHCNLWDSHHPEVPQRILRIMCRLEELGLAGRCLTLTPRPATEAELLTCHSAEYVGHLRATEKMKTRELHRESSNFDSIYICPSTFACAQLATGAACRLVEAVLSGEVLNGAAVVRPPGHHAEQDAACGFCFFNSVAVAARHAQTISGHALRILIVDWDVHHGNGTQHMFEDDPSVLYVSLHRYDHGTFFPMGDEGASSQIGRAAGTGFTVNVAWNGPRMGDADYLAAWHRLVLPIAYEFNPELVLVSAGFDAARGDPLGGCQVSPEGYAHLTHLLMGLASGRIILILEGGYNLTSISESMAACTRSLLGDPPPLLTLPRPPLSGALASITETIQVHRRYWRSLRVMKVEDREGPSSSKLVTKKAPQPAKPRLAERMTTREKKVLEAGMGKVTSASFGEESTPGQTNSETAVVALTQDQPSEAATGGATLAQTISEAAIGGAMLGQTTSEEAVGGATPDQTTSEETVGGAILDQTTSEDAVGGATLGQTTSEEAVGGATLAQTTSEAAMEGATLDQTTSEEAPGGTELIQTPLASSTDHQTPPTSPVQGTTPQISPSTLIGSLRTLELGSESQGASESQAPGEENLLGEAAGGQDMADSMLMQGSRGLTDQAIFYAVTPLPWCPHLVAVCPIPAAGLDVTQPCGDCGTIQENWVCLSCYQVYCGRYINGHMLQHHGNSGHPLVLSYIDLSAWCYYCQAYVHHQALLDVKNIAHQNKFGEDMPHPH
Procedure: Measurement of acetylation activity in cells on substrates:
ELISA assay of acetylation of α-tubulin
This assay is used to measure in vivo inhibition of HDAC6 in a cytoblot assay. Materials and Reagent: • 1. 24-well tissue culture • 2. DMEM Medium containing 10% FBS • 3. 96-well white plate • 4. HeLa cell line • 5. M-PER Mammalian Protein Extraction Reagent (Pierce) • 6. Bradford assay reagent • 7. Anti-acetyl-tubulin (Upstate) • 8. HRP-labeled anti-mouse IgG (Upstate) • 9. Coating Buffer: 15 mM Na2CO3, 35 mM NaHCO3 (pH 9.6) • 10. 10×PBS: 0.58 M Na2HPO4, 0.17M NaH2PO4, 0.68M NaCl (pH 7.4) • 11. Wash Buffer:1×PBS containing 0.05% Tween-20 (PBST) • 12. Blocking Buffer:10 mg/ml bocine serum albumin (BSA) in PBS • 13. Antibody Dilution Buffer: 5 mg/ml BSA in PBST • 14. Enhanced chemiluminescence (ECL) (Amersham)
Procedure for performing the assay in 96-well plate: • 1. HeLa cells were seeded at a density of 60000 cells/500 μl/well in 24-well plate and incubated at 37° C. for 24 hours. • 2. Compounds were added and incubated for 24 hours at 37° C. • 3. Culture medium was removed, then washes the cells twice with ice-cold PBS. • 4. Add 100 μl/well of Protein Extraction Reagent and gently shake the mixture for 5 minutes. • 5. Collect the lysate to a 96-well plate respectively. Determine the concentration of protein by Bradford assay. • 6. Coat the wells of a 96-well white plate with 100 μl/well of 2.5 μg whole cell protein in Coating Buffer by incubating overnight at 4° C. • 7. Discard the uncoated proteins and wash the coated wells three times with 200 μl/well of PBST. • 8. Block coated wells by incubating the plate with 200 μl/well of Blocking Buffer for 1 hour at 37° C. • 9. Wells were aspirated and washed three times with 200 μl/well of PBST. • 10. After aspirating, 50 μl/well of Antibody Dilution Buffer containing anti-Ac-tubulin (1:1000) were added to each well and incubated for 2 hour at 37° C. • 11. Wells were aspirated and washed three times with 200 μl/well of PBST. • 12. 50 μl/well of Antibody Dilution Buffer containing HRP-labeled anti-mouse IgG (1:2000) were added to each well and incubated for 2 hour at 37° C. • 13. Wells were aspirated and washed three times with 200 μl/well of PBST. • 14. Wells were washed three times with 200 μl/well of purified water. • 15. Add 50 μl/well of ECL mixture, then read the plates on the plate reader.

SMILES | % of Inhibition on Total HDAC Enzyme at 30 μM [1] [%] | fold induction at 10 µM [2]
Nc1cc(F)ccc1NC(=O)CCCCCNC(=O)c1cccc(/C=C2\C(=O)Nc3ccc(F)cc32)c1 [Example 45, 6-(3-((5-fluoro-2-oxoindolin-3-ylidene)methyl)benzamido)-N-(2-amino-4-fluorophenyl)hexanamide] | 30 | 1.64
O=C(CCCCCNC(=O)c1cccc(/C=C2\C(=O)Nc3ccc(F)cc32)c1)NO [Example 46, 6-(3-((5-fluoro-2-oxoindolin-3-ylidene)methyl)benzamido)-N-hydroxyhexanamide] | 95 | 2.07
Nc1ccccc1NC(=O)CCCCNC(=O)c1cccc(/C=C2\C(=O)Nc3ccc(F)cc32)c1 [Example 49, 5-(3-((5-fluoro-2-oxoindolin-3-ylidene)methyl)benzamido)-N-(2-aminophenyl)pentanamide] | 22 | 2.39
Nc1cc(F)ccc1NC(=O)CCCCNC(=O)c1cccc(/C=C2\C(=O)Nc3ccc(F)cc32)c1 [Example 50, 5-(3-((5-fluoro-2-oxoindolin-3-ylidene)methyl)benzamido)-N-(2-amino-4-fluorophenyl)pentanamide] | −3 | 1.97
O=C(CCCCNC(=O)c1cccc(/C=C2\C(=O)Nc3ccc(F)cc32)c1)NO [Example 51, 5-(3-((5-fluoro-2-oxoindolin-3-ylidene)methyl)benzamido)-N-hydroxypentanamide] | 86 | 1.97
Nc1ccccc1NC(=O)CCCCCCCNC(=O)c1cccc(/C=C2\C(=O)Nc3ccc(F)cc32)c1 [Example 54, 8-(3-((5-fluoro-2-oxoindolin-3-ylidene)methyl)benzamido)-N-(2-aminophenyl)octanamide] | 40 | 2.91
Nc1cc(F)ccc1NC(=O)CCCCCCCNC(=O)c1cccc(/C=C2\C(=O)Nc3ccc(F)cc32)c1 [Example 55, 8-(3-((5-fluoro-2-oxoindolin-3-ylidene)methyl)benzamido)-N-(2-amino-4-fluorophenyl)octanamide] | 14 | 1.49
O=C(CCCCCCCNC(=O)c1cccc(/C=C2\C(=O)Nc3ccc(F)cc32)c1)NO [Example 56, 8-(3-((5-fluoro-2-oxoindolin-3-ylidene)methyl)benzamido)-N-hydroxyoctanamide] | 93 | 2.66

From patent publication US7863315B2, “2-indolinone derivatives as selective histone deacetylase inhibitors” (Shenzhen Chipscreen Biosciences, Ltd., priority 2008, dated 2011)
